Entries after “also recorded” stand apart in the source; their conditions may differ.
Experiments:
[1] = biological target: T1, GFP-Hsp70i (Homo sapiens, UniProt P0DMV8); assay: FLECS elution of GFP-Hsp70i from γ-phosphate-linked ATP resin; assay type: binding; conditions: compared with HS-71
T1 construct: host or cells: HEK 293T
Procedure: FLECS Screen: A pEGFP-tagged Hsp70i was (plasmid 15215, Addgene, Cambridge, Mass.) used in the FLECS assay and was originally cloned according to [Zeng et al. (2004). Hsp70 dynamics in vivo: effect of heat shock and protein aggregation. Journal of cell science 117, 4991-5000]. ATP used in the assay was purchased from Sigma (St. Louis, Mo.) and a 200 mM stock was prepared with low salt buffer (150 mM NaCl, 25 mM Tris, pH 7.5, 60 mM MgCl2). The γ-phosphate ATP sepharose was synthesized as previously described and stored in low salt buffer [Haystead et al. (1993). Gamma-phosphate-linked ATP-sepharose for the affinity purification of protein kinases. Rapid purification to homogeneity of skeletal muscle mitogen-activated protein kinase kinase. European journal of biochemistry/FEBS 214, 459-467]. FuGENE 6 transfection reagent (Roche, Mannheim, Germany) was used for transfection of GFP-Hsp70i into HEK 293T cells, following the manufacturer protocol. The transfection ensued for 48 hours, upon which time the cells were harvested and lysed in cell lysis buffer (150 mM NaCl, 50 mM Tris, pH 7.5, 1% Triton X-100, 1 mM EDTA, 1 mM DTT, and 1 tablet Complete Mini protease inhibitor (Roche)). Cell lysates were stored at −80° C. until further use. Upon binding the resin lysates were washed 3× with high stringency wash buffer (1 M NaCl, 25 mM Tris, pH 7.5, 60 mM MgCl2, 1 mM DTT) and 3× with low stringency wash buffer (150 mM NaCl, 25 mM Tris, pH 7.5, 60 mM MgCl2, 1 mM DTT). […]
Assembly of a focused library, consisting of 3379 purine like compounds, was described previously [Carlson et al. (2013). Fluorescence Linked Enzyme Chemoproteomic Strategy for Discovery of a Potent and Selective DAPK1 and ZIPK Inhibitor. […] The lysates were eluted from the filter plate onto a catch plate by centrifugation and the fluorescence of the eluates was measured. […] Next, the presence of GFP-Hsp70i in the eluates from the 197 primary hits was determined by Western blot. […]

[2] = test system: RWPE1; assay: Cell proliferation, RWPE1; assay type: cell-based; conditions: non tumorigenic RWPE1
Procedure: Cell Proliferation: Cell proliferation was determined using a Hoechst stain (Sigma, St. Louis, Mo.) to quantify DNA. 5,000 cells of the designated cell line were plated in 96 well plates and treated the next day, designated as time point 0, with the indicated concentration of the specified compound maintained for the duration of the assay. At the indicated time points the media was removed and plated frozen at −80° C. Double distilled H2O was then added and the plates were incubated at 37° C. for 1 hour. After 1 hour the plates were frozen at −80° C. After freezing the plates were thawed and Hoechst stain was diluted 1:1000 in THE buffer (10 mM Tris, 2M NaCl, 1 mM Na2EDTA). The final fluorescence was measured on the Victor X2 plate reader at 355/460 nm, and cell proliferation was determined with the formula: % Cell Proliferation=100×(Sample fluorescence−background fluorescence)/(Control fluorescence−background fluorescence).

T1 sequence (P0DMV8 whole entry): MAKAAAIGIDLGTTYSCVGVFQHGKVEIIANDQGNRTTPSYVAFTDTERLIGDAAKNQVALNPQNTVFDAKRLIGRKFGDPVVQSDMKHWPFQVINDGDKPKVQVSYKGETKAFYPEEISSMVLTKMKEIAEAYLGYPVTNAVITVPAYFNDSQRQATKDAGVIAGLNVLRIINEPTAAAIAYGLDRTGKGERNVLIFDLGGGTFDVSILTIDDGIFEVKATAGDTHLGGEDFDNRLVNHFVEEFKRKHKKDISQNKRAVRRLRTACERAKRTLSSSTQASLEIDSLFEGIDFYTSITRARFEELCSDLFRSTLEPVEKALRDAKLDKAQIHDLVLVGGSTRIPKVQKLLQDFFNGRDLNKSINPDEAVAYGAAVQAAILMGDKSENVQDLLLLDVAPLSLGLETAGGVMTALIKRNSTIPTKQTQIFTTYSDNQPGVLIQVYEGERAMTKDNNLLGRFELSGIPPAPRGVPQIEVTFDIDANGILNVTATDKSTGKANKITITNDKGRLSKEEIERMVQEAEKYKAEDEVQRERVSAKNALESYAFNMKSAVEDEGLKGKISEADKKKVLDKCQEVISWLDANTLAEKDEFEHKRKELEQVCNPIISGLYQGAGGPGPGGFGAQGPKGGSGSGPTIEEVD

SMILES: CCCn1c(NC(=O)[C@H]2CCCN(c3cnccn3)C2)nc2ccccc21 [HS-72, (S)—N-(1-propyl-1H-benzo[d]imidazol-2-yl)-1-(pyrazin-2-yl)piperidine-3-carboxamide]
- elution of GFP-Hsp70 from the ATP resin, S vs. R enantiomer [1]: more effective
- cell proliferation [2]: insensitive; also recorded: only inhibited at the highest concentration tested

From patent publication US10000469B2, “Heat shock protein 70 (hsp-70) receptor ligands” (Duke University, priority 2014, dated 2018)
